Measurements reported in the NIST ThermoML archive (doi:10.1016/j.fluid.2005.02.014).
± gives the expanded uncertainty stated by the source.

Settings: Liquid; for mass density: 298.15 K, 101.33 kPa

| Normal boiling temperature [°C] | mass density (Vibrating tube method) [kg/m3] | SMILES | mass density [kg/m3] |
| --- | --- | --- | --- |
| 68.90 ± 0.26 |  | CC(C)CCl [1-chloro-2-methylpropane] | 870.94 ± 0.99 |
| 50.73 ± 0.26 |  | CC(C)(C)Cl [2-chloro-2-methylpropane] | 836.45 ± 0.65 |
| 88.08 ± 0.26 | 878.8 ± 0.5 | C1CCOCC1 [tetrahydropyran] |  |

The next lines start with the compound.

| SMILES | Normal boiling temperature [°C] | mass density (Vibrating tube method) [kg/m3] | mass density [kg/m3] |
| --- | --- | --- | --- |
| CCCCCl [1-chlorobutane] | 78.37 ± 0.26 |  | 880.67 ± 0.6 |
| CCC(C)Cl (stereo not given) [2-chlorobutane] | 68.11 ± 0.26 |  | 867.26 ± 0.62 |
